These results are taken from patent publication US12384798B2, “ACC inhibitor and use thereof” (NANJING RUIJIE PHARMA CO., LTD., priority 2019, dated 2025).

The nature of this data set: Pharmacokinetic evaluation of compounds in rats. It is filed as in vivo. Particulars: SD rats; for Kp / Vd / AUC(0-inf) / Cmax / Tmax / half-life / bioavailability: male, rat; for Kp: liver/plasma, liver collected 1 h, 3 h and 24 h after dosage, read-out: L/P liver-to-blood ratio; for Vd / AUC(0-inf) / Cmax / Tmax / half-life / bioavailability: plasma; for Vd: intravenous, 2 mg/kg, read-out: Vss; for bioavailability: read-out: F (%) bioavailability. The text has this: This example was intended to investigate the pharmacokinetics of the compounds of the present invention and ND630 in SD rats under the conditions of intravenous (iv) and intragastric administration (po). Unless otherwise stated, the experimental reagents and instruments are all commercially available. ND630 was Gilead's acetyl CoA carboxylase (ACC) inhibitor, with a structural formula as follows: […]
Formulation of compound: by taking a physiological saline solution of 5% DMSO+5% Solutol HS 15+90% HP-β-CD (20% w/v) as a solvent, a compound with the final concentration of 0.4 mg/mL was formulated for intravenous administration and a compound with the final concentration of 1 mg/mL was formulated for orally intragastric administration.
Animal feeding and management: male SD rats aged 6-8 weeks and weighing between 180-250 g were selected and raised in transparent resin plastic rate cages. Before administration, the rats were fasted overnight for at least 16 hours, and the feed supply was restored 4 hours after administration.
For the intravenous injection administration group, the dose was 2 mg/kg, and 0.2 mL of blood samples was collected from the jugular vein 5 min, 15 min, 30 min, 1 h, 3 h, 5 h, and 8 h after dosage. For the orally intragastric administration group, the dose was 10 mg/kg, and 0.2 mL of blood samples was collected from the jugular vein 15 min, 30 min, 1 h, 3 h, 5 h, 8 h, 12 h, and 24 h after dosage; and liver tissues were collected 1 h, 3 hand 24 h after dosage.
After the blood were sampled, the plasma was quickly separated by centrifugation at 4000 rpm (10 minutes, 4° C.). After the liver tissues were sampled, a mixture of methanol:water (1:1, v/v) three times the volume of the liver tissues was added to prepare a homogenate. 50 μL of plasma or homogenate sample was drawn, and 200 μL of an internal standard (30 ng/mL terfenadine, and acetonitrile) was added for precipitation. Centrifuging was carried out at 4° C. and 15,400 g for 10 minutes, and a supernatant was taken for analysis.
The concentration of a target compound was detected by LC-MS/MS. According to the plasma concentration-time curve, pharmacokinetic parameters were calculated by using a non-compartmental model (NCA) of software WinNonlin 7.0. […] Table 4. Pharmacokinetic results

Setting [1] is: iv 2 mg/kg, read-out: AUC0-∞ (iv).
[2] abbreviates: iv 2 mg/kg, read-out: Cmax (iv).
Setting [3] is: iv 2 mg/kg, read-out: Tmax (iv).
Where [4] appears, read: iv 2 mg/kg, read-out: t1/2 (iv) (converted).
Where [5] appears, read: po 10 mg/kg, read-out: AUC0-∞ (po).
Where [6] appears, read: po 10 mg/kg, read-out: Cmax (po).
The mark [7] stands for this setting: po 10 mg/kg, read-out: Tmax (po).
Where [8] appears, read: po 10 mg/kg, read-out: t1/2 (po) (converted).

Read-outs that look alike come from different tables or passages of the source.

A word on the Cmax: it is the maximum level reached in the sampled fluid or tissue. For orientation: Tmax means the time at which the peak concentration occurs. The bioavailability is the share of a dose that reaches the circulation, judged against a reference dose that is usually intravenous. `COc1ccccc1[C@H](Cn1c(=O)n([C@H]2C[C@@H](CC(=O)O)C2)c(=O)c2c(C)c(-c3ncco3)sc21)OC1CCOCC1` [c-3-2, 2-((1S,3s)-3-(1-((R)-2-(2-methoxyphenyl)-2-((tetrahydro-2H-pyran-4-yl)oxy)ethyl)-5-methyl-6-(oxazol-2-yl)-2,4-dioxo-1,2-dihydrothieno[2,3-d]pyrimidine-3(4H)-yl)cyclobutyl)acetic acid]: the Cl was determined as 25.1 mL/min/kg and the Vd worked out at 0.839 L/kg. In addition, the Kp (po 10 mg/kg) was 20.6 to 30. In addition, the AUC(0-inf) under setting [1] stood at 1390 ng·h/mL. Further, the Cmax under setting [2] is 3110 ng/mL. Besides, the time of peak concentration (Tmax) under setting [3] came out at 5 min. Further, under setting [4], the half-life is 54 min. Under setting [5], the AUC(0-inf) is 4350 ng·h/mL. Moreover, the highest concentration (Cmax) under setting [6] came out at 3240 ng/mL. In addition, the Tmax under setting [7] turned out to be 24 min. The half-life under setting [8] is 289 min. Moreover, the bioavailability (po 10 mg/kg, iv 2 mg/kg) amounted to 62.3%.
`COc1ccccc1[C@H](Cn1c(=O)n([C@H]2C[C@H](CC(=O)O)C2)c(=O)c2c(C)c(-c3ncco3)sc21)OC1CCOCC1` [c-3-1, 2-((1R,3r)-3-(1-((R)-2-(2-methoxyphenyl)-2-((tetrahydro-2H-pyran-4-yl)oxy)ethyl)-5-methyl-6-(oxazol-2-yl)-2,4-dioxo-1,2-dihydrothieno[2,3-d]pyrimidine-3(4H)-yl)cyclobutyl)acetic acid]: the Cl worked out at 10.7 mL/min/kg and the Vd was 0.826 L/kg. The Kp (po 10 mg/kg) was 9.46 to 17.3. The AUC(0-inf) under setting [1] was determined as 3120 ng·h/mL. In addition, the Cmax under setting [2] is 4100 ng/mL. Besides, under setting [3], the Tmax was 5 min. Besides, under setting [4], the half-life was 104 min. The AUC(0-inf) under setting [5] was determined as 15700 ng·h/mL. Besides, under setting [6], the Cmax was found to be 7780 ng/mL. For the same molecule, the time of peak concentration (Tmax) under setting [7] is 30 min. The half-life under setting [8] is 279 min. For the same molecule, the bioavailability (po 10 mg/kg, iv 2 mg/kg) is 99.6%.
